Measured values published in the supplement of paper PMC10627819.

Experiments:
[1] = system: B. subtilis 168; experiment: fitness (endpoint OD595 vs no drug) (fraction); higher = more growth
Procedure, shortened: (§1)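 Bacterial growth was followed in 384-well plates seeded at OD595 0.01, with 30 µl per well, or 55 µl for S. pneumoniae, in TSB, LB Lennox or CY at 37 °C. OD595 was read every 30 min for 14 h, and each reading had the first reading subtracted as background. Fitness is the background-corrected optical density at entry into stationary phase divided by the robust mean of the no-drug control wells. This ratio is capped at 1.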

[2] = system: S. aureus DSM 20231; experiment: as above
Procedure, shortened: as §1

[3] = system: S. pneumoniae D39V; experiment: as above
Procedure, shortened: as §1

[4] = system: S. aureus Newman; experiment: as above
Procedure, shortened: as §1

[5] = system: B. subtilis 168; experiment: Bliss interaction score (quartile over a dose matrix) (fitness difference); higher = more antagonism (negative = synergy)
Procedure, shortened: (§2)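 The Bliss score takes observed fitness and subtracts the expected fitness, calculated as a product of single-drug fitness values. Those single-drug values were inferred from the combination data. Fitness is OD595 at entry into stationary phase divided by the plate's robust no-drug mean, capped at 1, and the score is summarised by quartiles across technical, biological and donor/recipient replicates.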

[6] = system: S. aureus DSM 20231; experiment: as above
Procedure, shortened: as §2

[7] = system: S. pneumoniae D39V; experiment: as above
Procedure, shortened: as §2

[8] = system: S. aureus Newman; experiment: as above
Procedure, shortened: as §2
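For Bliss interaction score (quartile over a dose matrix) in this document: first quartile when negative (synergy) and third quartile when positive (antagonism).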

COc1cccc2c1C(=O)c1c(O)c3c(c(O)c1C2=O)C[C@@](O)(C(=O)CO)C[C@@H]3O[C@H]1C[C@H](N)[C@H](O)[C@H](C)O1 [Doxorubicin] + Cc1ncc([N+](=O)[O-])n1CCO [Metronidazole]
fitness
Conditions	first compound 0.25 µg/mL	first compound 0.5 µg/mL	first compound 0.625 µg/mL	first compound 1 µg/mL	first compound 1.25 µg/mL	first compound 2.5 µg/mL
[1], partner 0.625 µg/mL	–	–	≥ 1	–	0.964	0.74
[1], partner 1.25 µg/mL	–	–	0.941	–	0.929	0.699
[1], partner 2.5 µg/mL	–	–	0.937	–	0.956	0.653
[2], partner 0.625 µg/mL	–	–	0.899	–	0.874	0.791
[2], partner 1.25 µg/mL	–	–	0.972	–	0.974	0.84
[2], partner 2.5 µg/mL	–	–	0.994	–	0.965	0.897
[3], partner 1.073 µg/mL	0.827	0.954	–	0.895	–	–
[3], partner 1.25 µg/mL	0.993	≥ 1	–	0.969	–	–
[3], partner 2.145 µg/mL	0.79	0.895	–	0.907	–	–
[3], partner 2.5 µg/mL	≥ 1	≥ 1	–	0.981	–	–
[3], partner 4.29 µg/mL	0.809	0.869	–	0.843	–	–
[3], partner 5 µg/mL	0.993	0.996	–	0.944	–	–
[4], partner 0.625 µg/mL	–	–	0.843	–	0.774	0.753
[4], partner 0.781 µg/mL	–	–	0.761	–	0.765	0.75
[4], partner 1.25 µg/mL	–	–	0.881	–	0.807	0.795
[4], partner 1.562 µg/mL	–	–	0.76	–	0.793	0.751
[4], partner 2.5 µg/mL	–	–	0.853	–	0.793	0.732
[4], partner 3.124 µg/mL	–	–	0.76	–	0.806	0.76

Conditions	Bliss interaction score
[5]	0.0987
[6]	0.0515
[7]	0.0624
[8]	-0.0468

Cc1ncc([N+](=O)[O-])n1CCO [Metronidazole] + COc1ccc(C[C@H](N)C(=O)N[C@H]2[C@@H](O)[C@H](n3cnc4c(N(C)C)ncnc43)O[C@@H]2CO)cc1 [Puromycin]
fitness
Conditions	first compound 0.625 µg/mL	first compound 1.073 µg/mL	first compound 1.25 µg/mL	first compound 2.145 µg/mL	first compound 2.5 µg/mL	first compound 4.29 µg/mL
[1], partner 0.39 µg/mL	0.936	–	0.945	–	0.961	–
[1], partner 0.78 µg/mL	0.953	–	0.931	–	0.937	–
[1], partner 1.56 µg/mL	0.946	–	0.895	–	0.864	–
[2], partner 0.39 µg/mL	0.997	–	≥ 1	–	≥ 1	–
[2], partner 0.78 µg/mL	≥ 1	–	≥ 1	–	≥ 1	–
[2], partner 1.56 µg/mL	≥ 1	–	≥ 1	–	≥ 1	–
[3], partner 1 µg/mL	–	≥ 1	–	0.875	–	0.96
[3], partner 2 µg/mL	–	0.973	–	0.904	–	0.914
[3], partner 4 µg/mL	–	0.874	–	0.836	–	0.88
[4], partner 0.39 µg/mL	0.902	–	0.998	–	≥ 1	–
[4], partner 0.78 µg/mL	0.968	–	≥ 1	–	≥ 1	–
[4], partner 1.56 µg/mL	≥ 1	–	≥ 1	–	≥ 1	–

one replicate
Conditions	fitness
[2], first compound 0.625 µg/mL, partner 3.12 µg/mL	≥ 1
[2], first compound 0.625 µg/mL, partner 6.24 µg/mL	0.756
[2], first compound 1.25 µg/mL, partner 3.12 µg/mL	0.957
[2], first compound 1.25 µg/mL, partner 6.24 µg/mL	0.827
[2], first compound 2.5 µg/mL, partner 3.12 µg/mL	0.977
[2], first compound 2.5 µg/mL, partner 6.24 µg/mL	0.848
[3], first compound 1.25 µg/mL, partner 1 µg/mL	0.928
[3], first compound 1.25 µg/mL, partner 2 µg/mL	0.97
[3], first compound 1.25 µg/mL, partner 4 µg/mL	0.842
[3], first compound 2.5 µg/mL, partner 1 µg/mL	0.936
[3], first compound 2.5 µg/mL, partner 2 µg/mL	≥ 1
[3], first compound 2.5 µg/mL, partner 4 µg/mL	0.835
[3], first compound 5 µg/mL, partner 1 µg/mL	0.97
[3], first compound 5 µg/mL, partner 2 µg/mL	0.95
[3], first compound 5 µg/mL, partner 4 µg/mL	0.852
[4], first compound 0.781 µg/mL, partner 0.39 µg/mL	≥ 1
[4], first compound 0.781 µg/mL, partner 0.78 µg/mL	≥ 1
[4], first compound 0.781 µg/mL, partner 1.56 µg/mL	≥ 1
[4], first compound 1.562 µg/mL, partner 0.39 µg/mL	0.974
[4], first compound 1.562 µg/mL, partner 0.78 µg/mL	0.997
[4], first compound 1.562 µg/mL, partner 1.56 µg/mL	≥ 1
[4], first compound 3.124 µg/mL, partner 0.39 µg/mL	0.933
[4], first compound 3.124 µg/mL, partner 0.78 µg/mL	≥ 1
[4], first compound 3.124 µg/mL, partner 1.56 µg/mL	≥ 1

Conditions	Bliss interaction score
[5]	-0.0368
[6]	0.0499
[7]	0.129
[8]	0.0534

COc1ccc(C[C@H](N)C(=O)N[C@H]2[C@@H](O)[C@H](n3cnc4c(N(C)C)ncnc43)O[C@@H]2CO)cc1 [Puromycin] + Cc1cc(NS(=O)(=O)c2ccc(N)cc2)no1 [Sulfamethoxazol]
one replicate
Conditions	fitness
[1], first compound 0.39 µg/mL, partner 0.5 µg/mL	≥ 1
[1], first compound 0.78 µg/mL, partner 0.5 µg/mL	0.996
[1], first compound 1.56 µg/mL, partner 0.5 µg/mL	0.992
[2], first compound 3.12 µg/mL, partner 1 µg/mL	0.884
[2], first compound 3.12 µg/mL, partner 2 µg/mL	0.864
[2], first compound 3.12 µg/mL, partner 4 µg/mL	0.969
[2], first compound 6.24 µg/mL, partner 1 µg/mL	0.722
[2], first compound 6.24 µg/mL, partner 2 µg/mL	0.706
[2], first compound 6.24 µg/mL, partner 4 µg/mL	0.736
[4], first compound 0.39 µg/mL, partner 8 µg/mL	0.916
[4], first compound 0.78 µg/mL, partner 8 µg/mL	0.931
[4], first compound 1.56 µg/mL, partner 8 µg/mL	0.983

fitness
Conditions	partner 1 µg/mL	partner 2 µg/mL	partner 4 µg/mL
[1], first compound 0.39 µg/mL	0.934	0.947	0.891
[1], first compound 0.78 µg/mL	0.921	0.863	0.949
[1], first compound 1.56 µg/mL	0.968	0.888	0.941
[2], first compound 0.39 µg/mL	0.998	0.996	≥ 1
[2], first compound 0.78 µg/mL	0.988	≥ 1	0.995
[2], first compound 1.56 µg/mL	0.952	0.992	0.961
[3], first compound 1 µg/mL	0.945	0.934	0.961
[3], first compound 2 µg/mL	0.948	0.927	0.932
[3], first compound 4 µg/mL	0.799	0.807	0.947
[4], first compound 0.78 µg/mL	0.996	0.943	0.958
[4], first compound 1.56 µg/mL	0.966	0.968	≥ 1

Conditions	Bliss interaction score
[5]	0.0514
[6]	0.0554
[7]	0.113
[8]	0.0386

C[C@@H]1O[C@@H]1P(=O)(O)O [Fosfomycin] + Cc1onc(-c2ccccc2)c1C(=O)N[C@@H]1C(=O)N2[C@@H]1SC(C)(C)[C@@H]2C(=O)O [Oxacillin]
Conditions	fitness
[1], first compound 1.562 µg/mL, partner 0.002 µg/mL	0.65
[1], first compound 1.562 µg/mL, partner 0.004 µg/mL	0.696
[1], first compound 1.562 µg/mL, partner 0.008 µg/mL	0.568
[1], first compound 3.124 µg/mL, partner 0.002 µg/mL	0.566
[1], first compound 3.124 µg/mL, partner 0.004 µg/mL	0.546
[1], first compound 3.124 µg/mL, partner 0.008 µg/mL	0.51
[1], first compound 6.248 µg/mL, partner 0.002 µg/mL	0.358
[1], first compound 6.248 µg/mL, partner 0.004 µg/mL	0.33
[1], first compound 6.248 µg/mL, partner 0.008 µg/mL	0.281
[2], first compound 0.781 µg/mL, partner 0.0156 µg/mL	0.539
[2], first compound 0.781 µg/mL, partner 0.0312 µg/mL	0.504
[2], first compound 0.781 µg/mL, partner 0.0625 µg/mL	0.489
[2], first compound 1.562 µg/mL, partner 0.0156 µg/mL	0.442
[2], first compound 1.562 µg/mL, partner 0.0312 µg/mL	0.459
[2], first compound 1.562 µg/mL, partner 0.0625 µg/mL	0.362
[2], first compound 3.124 µg/mL, partner 0.0156 µg/mL	0.402
[2], first compound 3.124 µg/mL, partner 0.0312 µg/mL	0.335
[2], first compound 3.124 µg/mL, partner 0.0625 µg/mL	0.0751
[3], first compound 1.25 µg/mL, partner 0.005 µg/mL	≥ 1
[3], first compound 1.25 µg/mL, partner 0.01 µg/mL	0.996
[3], first compound 1.25 µg/mL, partner 0.02 µg/mL	0.916
[3], first compound 1.25 µg/mL, partner 0.04 µg/mL	0.3
[3], first compound 2.5 µg/mL, partner 0.005 µg/mL	0.982
[3], first compound 2.5 µg/mL, partner 0.01 µg/mL	0.913
[3], first compound 2.5 µg/mL, partner 0.02 µg/mL	0.843
[3], first compound 2.5 µg/mL, partner 0.04 µg/mL	0.181
[3], first compound 5 µg/mL, partner 0.005 µg/mL	0.85
[3], first compound 5 µg/mL, partner 0.04 µg/mL	0.0702
[4], first compound 0.781 µg/mL, partner 0.0156 µg/mL	0.606
[4], first compound 0.781 µg/mL, partner 0.0312 µg/mL	0.563
[4], first compound 0.781 µg/mL, partner 0.0625 µg/mL	0.49
[4], first compound 1.562 µg/mL, partner 0.0156 µg/mL	0.475
[4], first compound 1.562 µg/mL, partner 0.0312 µg/mL	0.421
[4], first compound 1.562 µg/mL, partner 0.0625 µg/mL	0.279
[4], first compound 3.124 µg/mL, partner 0.0156 µg/mL	0.145
[4], first compound 3.124 µg/mL, partner 0.0312 µg/mL	0.0796
[4], first compound 3.124 µg/mL, partner 0.0625 µg/mL	0.0515

fitness, [1], one replicate
Conditions	partner 0.0078 µg/mL	partner 0.0155 µg/mL	partner 0.031 µg/mL	partner 0.075 µg/mL	partner 0.15 µg/mL	partner 0.3 µg/mL
first compound 1.562 µg/mL	0.807	0.835	0.797	0.339	0.0497	0.0455
first compound 3.124 µg/mL	0.663	0.68	0.613	0.164	0.0172	0.0362
first compound 6.248 µg/mL	0.548	0.531	0.504	0.0968	0.0104	0.0381

Conditions	Bliss interaction score
[5]	-0.0577
[6]	-0.11
[7]	-0.154
[8]	-0.0668
